Values of other authors in patent US20080044486A1, “Controlled Food Effect Composition” (priority 2003, published 2008).

Assays:
[1] = oral, conventional pharmaceutical composition

| Compound | Food effect in a conventional composition (references) [1] | LogP |
| --- | --- | --- |
| CC(=O)Oc1ccccc1C(=O)O [Acetylsalicylic acid] | Delayed absorption and reduced | – |
| COc1cc(C)c(/C=C/C(C)=C/C=C/C(C)=C/C(=O)O)c(C)c1C [Acitretin] | Increased absorption (2, 4) | 6.4 |
| CCCCc1oc2ccccc2c1C(=O)c1cc(I)c(OCCN(CC)CC)c(I)c1 [Amiodarone] | Increased absorption (3) | – |
| CO[C@H]1O[C@@H]2O[C@@]3(C)CC[C@H]4[C@H](C)CC[C@@H]([C@H]1C)[C@@]24OO3 [Artemether] | High-fat food gives increased | 3.5 |
| O=C1C(O)=C([C@H]2CC[C@H](c3ccc(Cl)cc3)CC2)C(=O)c2ccccc21 [Atovaquone] | High-fat food gives increased | 4.9 |
| CC(C)/N=c1\cc2n(-c3ccc(Cl)cc3)c3ccccc3nc-2cc1Nc1ccc(Cl)cc1 [Clofazimine] | Increased absorption (2, 4) | – |
| C#C[C@]1(O)CC[C@H]2[C@@H]3CCC4=Cc5oncc5C[C@]4(C)[C@H]3CC[C@@]21C [Danazol] | – | 4.3 |
| CCOC(=O)/C=C(C)/C=C/C=C(C)/C=C/c1c(C)cc(OC)c(C)c1C [Etretinate] | – | 6.6 |
| CCOC(=O)C1=C(C)NC(C)=C(C(=O)OC)C1c1cccc(Cl)c1Cl (stereo not shown) [Felodipine] | High-fat food gives increased | – |
| CC1=C(/C=C/C(C)=C/C=C/C(C)=C/C(=O)Nc2ccc(O)cc2)C(C)(C)CCC1 [Fenretinide] | High-fat food gives increased | 6.1 |
| CC1=C(/C=C/C(C)=C/C=C/C(C)=C\C(=O)O)C(C)(C)CCC1 [Isotretinoin] | Increased absorption (7) | – |
| CCC(C)n1ncn(-c2ccc(N3CCN(c4ccc(OCC5COC(Cn6cncn6)(c6ccc(Cl)cc6Cl)O5)cc4)CC3)cc2)c1=O (stereo not shown) [Itraconazole] | Increased but delayed absorption | 5.7 |
| CCOC(=O)N1CCC(=C2c3ccc(Cl)cc3CCc3cccnc32)CC1 [Loratadine] | Increased but delayed absorption | – |
| CCCCN(CCCC)CC(O)c1cc(Cl)cc2c1-c1ccc(Cl)cc1/C2=C/c1ccc(Cl)cc1 (stereo not shown) [Lumefantrine] | High-fat food gives increased | 8.9 |
| COC(=O)C1=C(C)NC(C)=C(C(=O)OCCN2CCN(C(c3ccccc3)c3ccccc3)CC2)C1c1cccc([N+](=O)[O-])c1 (stereo not shown) [Manidipine] | Increased absorption (2) | 4.1 |
| Cc1c(-c2cnccn2)ssc1=S [Oltipraz] | Increased absorption (6) | 1.7 |
| O=C(c1ccc(OCCN2CCCCC2)cc1)c1c(-c2ccc(O)cc2)sc2cc(O)ccc12 [Raloxifene] | – | 5.5 |
| NC(=O)c1ncn([C@@H]2O[C@H](CO)[C@@H](O)[C@H]2O)n1 [Ribavirin] | High-fat food gives increased | −1.9 |
| CC(C)c1nc(CN(C)C(=O)N[C@H](C(=O)N[C@@H](Cc2ccccc2)C[C@H](O)[C@H](Cc2ccccc2)NC(=O)OCc2cncs2)C(C)C)cs1 [Ritonavir] | Increased absorption (1, 4, 5) | – |
| NC(=O)c1cn(Cc2c(F)cccc2F)nn1 [Rufinamide] | – | 0.8 |
| CC(C)(C)NC(=O)[C@@H]1C[C@@H]2CCCC[C@@H]2CN1C[C@@H](O)[C@H](Cc1ccccc1)NC(=O)[C@H](CC(N)=O)NC(=O)c1ccc2ccccc2n1 [Saquinavir] | – | 3.8 |
| CO[C@H]1C[C@@H]2CC[C@@H](C)[C@@](O)(O2)C(=O)C(=O)N2CCCC[C@H]2C(=O)O[C@H]([C@H](C)C[C@@H]2CC[C@@H](O)[C@H](OC)C2)CC(=O)[C@H](C)/C=C(\C)[C@@H](O)[C@@H](OC)C(=O)[C@H](C)C[C@H](C)/C=C/C=C/C=C/1C [Sirolimus] | High-fat food gives increased | 5.3 |
| CC(=O)S[C@@H]1CC2=CC(=O)CC[C@]2(C)[C@H]2CC[C@@]3(C)[C@@H](CC[C@@]34CCC(=O)O4)[C@H]12 [Spironolactone] | Increased absorption and reduced | 2.8 |
| CC(C)OC(=O)OCOP(=O)(CO[C@H](C)Cn1cnc2c(N)ncnc21)OCOC(=O)OC(C)C [Tenofovir disoproxil] | High-fat food gives increased | 0.6 |
| CCCC(CCC)C(=O)O [Valproic acid] | Delayed absorption and reduced | – |
